The values below come from ChEMBL document CHEMBL4334495, “Design and Biological Evaluation of m-Xylene Thioether-Stapled Short Helical Peptides Targeting the HIV-1 gp41 Hexameric Coiled-Coil Fusion Complex” (J Med Chem, 2019).

The test system of data set [1] is Human immunodeficiency virus 1. The data set can be described thus: Antiviral activity against T20 resistant HIV1 NL4-3 harboring with V38E/N42T mutant infected in human MT2 cells or CEMx174 5.25 M7 cells assessed as reduction in p24 Gag protein production measured at 4 days post-infection by ELISA. The data set is classed as functional, organism-based. Background: In an ELISA, binding on a coated surface is turned into a signal by an enzyme label.

Data set [2] relates to Human immunodeficiency virus 1. The data set can be described thus: Antiviral activity against T2635 resistant HIV1 LAI harboring Q66R mutant infected in human MT2 cells or CEMx174 5.25 M7 cells assessed as reduction in p24 Gag protein production at 12.5:1 ratio of hCS6ERE to compound measured at 4 days post infection by ELISA. Type of data set: functional, organism-based, M:B_Lai.

Data set [3] has as its system Human immunodeficiency virus 1. Put plainly: Antiviral activity against T2635 resistant HIV1 LAI harboring Q66R mutant infected in human MT2 cells or CEMx174 5.25 M7 cells assessed as reduction in p24 Gag protein production measured at 4 days post-infection by ELISA. The data set is classed as functional, organism-based, M:B_Lai.
For data set [4], the target named is Envelope glycoprotein gp160 (Human immunodeficiency virus 1) (UniProt Q6QLK5). The data set can be described thus: Ratio of EC50 for inhibition of HIV1 gp41-induced cell-cell fusion between viral envelope expressing human HL2/3 cells to CD4/CCR5 receptor expressing TZM-bl cells in absence of HP23 to EC50 for inhibition of HIV1 gp41-induced cell-cell fusion between viral envelope expressing human HL2/3 cells to CD4/CCR5 receptor expressing TZM-bl cells at 2:1 ratio of hCS6ERE to compound.
Sequence of Envelope glycoprotein gp160 (Human immunodeficiency virus 1) (Q6QLK5 1-814): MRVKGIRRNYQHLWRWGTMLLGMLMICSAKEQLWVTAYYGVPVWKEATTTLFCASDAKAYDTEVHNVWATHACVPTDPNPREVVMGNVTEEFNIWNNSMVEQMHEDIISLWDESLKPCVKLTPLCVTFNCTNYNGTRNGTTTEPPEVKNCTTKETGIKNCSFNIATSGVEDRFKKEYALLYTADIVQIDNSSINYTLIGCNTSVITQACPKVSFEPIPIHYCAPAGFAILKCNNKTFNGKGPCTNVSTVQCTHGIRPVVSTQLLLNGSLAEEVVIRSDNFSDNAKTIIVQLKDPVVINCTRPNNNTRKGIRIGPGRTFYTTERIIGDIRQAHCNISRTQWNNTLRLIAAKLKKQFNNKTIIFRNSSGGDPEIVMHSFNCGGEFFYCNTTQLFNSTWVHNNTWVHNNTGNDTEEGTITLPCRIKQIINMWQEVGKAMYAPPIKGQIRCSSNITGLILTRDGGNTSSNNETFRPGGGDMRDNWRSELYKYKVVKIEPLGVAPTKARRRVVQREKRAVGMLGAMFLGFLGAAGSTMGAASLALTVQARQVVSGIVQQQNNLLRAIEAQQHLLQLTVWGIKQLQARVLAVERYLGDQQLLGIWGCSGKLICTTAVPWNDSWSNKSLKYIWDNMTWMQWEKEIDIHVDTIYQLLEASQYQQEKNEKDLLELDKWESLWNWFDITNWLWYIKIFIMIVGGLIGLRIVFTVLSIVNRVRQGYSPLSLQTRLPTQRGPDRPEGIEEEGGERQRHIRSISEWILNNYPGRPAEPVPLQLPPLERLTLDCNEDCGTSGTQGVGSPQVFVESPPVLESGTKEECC

Data set [5] relates to Human immunodeficiency virus 1. Put plainly: Antiviral activity against X4 tropic HIV-1 subtype-B 3B infected in human MT2 cells or CEMx174 5.25 M7 cells assessed as reduction in p24 Gag protein production measured at 4 days post-infection by ELISA. The data set is classed as functional, cell-based, HIV-1 group M. Conditions: Human immunodeficiency virus 1, 3B, 96 h.
For data set [6], the system named is Human immunodeficiency virus 1. The data set can be described thus: Antiviral activity against R5 tropic HIV-1 subtype-B Bal infected in human MT2 cells or CEMx174 5.25 M7 cells assessed as reduction in p24 Gag protein production measured at 4 days post-infection by ELISA. The data set is classed as functional, cell-based, HIV-1 group M. Conditions: Human immunodeficiency virus 1, Bal, 96 h.

For data set [7], the system named is Human immunodeficiency virus 1. Put plainly: Ratio of EC50 for antiviral activity against X4 tropic HIV-1 subtype-B 3B infected in human MT2 cells or CEMx174 5.25 M7 cells in absence of hCS6ERE to EC50 for antiviral activity against X4 tropic HIV-1 subtype-B 3B infected in human MT2 cells or CEMx174 5.25 M7 cells at 6:1 ratio of hCS6ERE to compound. The data set is classed as functional, HIV-1 group M.

The test system of data set [8] is Human immunodeficiency virus 1. The data set can be described thus: Antiviral activity against T20 resistant HIV1 NL4-3 harboring with V38E/N42S mutant infected in human MT2 cells or CEMx174 5.25 M7 cells assessed as reduction in p24 Gag protein production measured at 4 days post-infection by ELISA. Type of data set: functional, organism-based.
The test system of data set [9] is Human immunodeficiency virus 1. Put plainly: Antiviral activity against HIV1 NL4-3 infected in human MT2 cells or CEMx174 5.25 M7 cells assessed as reduction in p24 Gag protein production measured at 4 days post infection by ELISA. Conditions: Human immunodeficiency virus 1, NL4-3, 96 h. Type of data set: functional, organism-based.
Data set [10] concerns Human immunodeficiency virus 1. The data set can be described thus: Ratio of EC50 for antiviral activity against X4 tropic HIV-1 subtype-B 3B infected in human MT2 cells or CEMx174 5.25 M7 cells in absence of hCS6ERE to EC50 for antiviral activity against X4 tropic HIV-1 subtype-B 3B infected in human MT2 cells or CEMx174 5.25 M7 cells at 12:1 ratio of hCS6ERE to compound. The data set is classed as functional, HIV-1 group M.

Data set [11] has as its system Human immunodeficiency virus 1. Put plainly: Ratio of EC50 for antiviral activity against HIV1 NL4-3 infected in human MT2 cells or CEMx174 5.25 M7 cells in absence of hCS6ERE to EC50 for antiviral activity against HIV1 NL4-3 infected in human MT2 cells or CEMx174 5.25 M7 cells at 5:1 hCS6ERE to compound ratio. Type of data set: functional.
Data set [12] relates to Human immunodeficiency virus 1. Put plainly: Antiviral activity against HIV1 NL4-3 infected in human MT2 cells or CEMx174 5.25 M7 cells assessed as reduction in p24 Gag protein production at 10:1 hCS6ERE to compound ratio measured at 4 days post-infection by ELISA. The data set is classed as functional, organism-based. Conditions: Human immunodeficiency virus 1, NL4-3, 96 h.

The subject of data set [13] is Human immunodeficiency virus 1. The data set can be described thus: Ratio of EC50 for antiviral activity against T20 resistant HIV1 NL4-3 harboring with V38E/N42S mutant infected in human MT2 cells or CEMx174 5.25 M7 cells in absence of hCS6ERE to EC50 for antiviral activity against T20 resistant HIV1 NL4-3 harboring with V38E/N42S mutant infected in human MT2 cells or CEMx174 5.25 M7 cells at 14000:1 hCS6ERE to compound ratio. Type of data set: functional.

The subject of data set [14] is Human immunodeficiency virus 1. Put plainly: Synergistic antiviral activity against HIV1 NL4-3 infected in human MT2 cells or CEMx174 5.25 M7 cells assessed as reduction in p24 Gag protein production by measuring combination index at 5:1 compound to HP23 ratio measured at 4 days post-infection by ELISA. Type of data set: functional.
Data set [15] is described as follows: Metabolic stability of the compound assessed as Proteinase K (unknown origin)-mediated compound hydrolysis by measuring parent compound remaining at 3 to 100 uM after 4 hrs by RP-HPLC analysis. The data set is classed as ADME. Conditions: human, read-out: Stability.
For data set [16], the system named is Human immunodeficiency virus 1. Put plainly: Ratio of EC50 for antiviral activity against R5 tropic HIV-1 subtype-B Bal infected in human MT2 cells or CEMx174 5.25 M7 cells in absence of HP23 to EC50 for antiviral activity against R5 tropic HIV-1 subtype-B Bal infected in human MT2 cells or CEMx174 5.25 M7 cells at 6:1 compound to HP23 ratio. Type of data set: functional, HIV-1 group M.

For data set [17], the system named is Human immunodeficiency virus 1. The data set can be described thus: Ratio of EC50 for antiviral activity against X4 tropic HIV-1 subtype-B 3B infected in human MT2 cells or CEMx174 5.25 M7 cells in absence of HP23 to EC50 for antiviral activity against X4 tropic HIV-1 subtype-B 3B infected in human MT2 cells or CEMx174 5.25 M7 cells at 24:1 compound to HP23 ratio. Type of data set: functional, HIV-1 group M.

Data set [18] relates to Human immunodeficiency virus 1. The data set can be described thus: Synergistic antiviral activity against X4 tropic HIV-1 subtype-B 3B infected in human MT2 cells or CEMx174 5.25 M7 cells assessed as reduction in p24 Gag protein production by measuring combination index at 24:1 compound to HP23 ratio measured at 4 days post-infection by ELISA. Type of data set: functional, HIV-1 group M.

Data set [19] concerns Human immunodeficiency virus 1. Put plainly: Synergistic antiviral activity against T20 resistant HIV1 NL4-3 harboring with V38E/N42S mutant infected in human MT2 cells or CEMx174 5.25 M7 cells assessed as reduction in p24 Gag protein production by measuring combination index at 7000:1 compound to HP23 ratio measured at 4 days post-infection by ELISA. Type of data set: functional.

Data set [20] concerns Human immunodeficiency virus 1. Put plainly: Antiviral activity against T20 resistant HIV1 NL4-3 harboring with V38E/N42T mutant infected in human MT2 cells or CEMx174 5.25 M7 cells assessed as reduction in p24 Gag protein production at 300:1 compound to HP23 ratio measured at 4 days post-infection by ELISA. Type of data set: functional, organism-based.

What is called EC50 is the concentration needed to bring the measured effect to its halfway point.

Starred links: 1 amine or outer side, 2 acyl side, 3 side chain; linkers in the order of their positions; H or OH if unused. Positions of bridges follow the written chain, without caps; N, C: chain ends. Non-standard residues stand in square brackets, D forms with d. Residues, ends and D or L forms follow the SMILES beside them. ξ: configuration not given here. mXylylene = c1cc(C[*:1])cc(C[*:2])c1; ξhCys = NC(CCS)C(=O)O

In the case of H-EMTWEEWEKKIEEYTKKIEEILK-OH, the EC50 is 4.1 nM in [1]; 1.8 nM in data set [2]; 4.8 nM in data set [3]; 2.5 nM in data set [5]; 2.6 nM in [6]; 1.4 nM in [8]. Also, the EC50 was found to be 3.4 nM in data set [9] and 0.9 nM in data set [12]. The Ratio EC50 in data set [4] was 2; in data set [7], 1.9; in [10] it was 2.8; in data set [11] it was 3.8; in [13] it was 7.
In the case of `CC[C@H](C)[C@H](NC(C)=O)C(=O)N[C@@H](CCC(=O)O)C(=O)N[C@@H](CCC(=O)O)C(=O)N[C@@H](CC(C)C)C(=O)N[C@H](C(=O)NC1CCSCc2cccc(c2)CSCCC(C(=O)N[C@@H](CCC(N)=O)C(=O)N[C@@H](CCC(N)=O)C(=O)N[C@@H](CCCNC(=N)N)C(=O)N[C@@H](CCCCN)C(=O)N[C@@H](CC(N)=O)C(=O)N[C@@H](CCC(=O)O)C(=O)N[C@@H](CCC(=O)O)C(=O)N[C@@H](C)C(=O)N[C@@H](CC(C)C)C(=O)N[C@@H](CCCNC(=N)N)C(=O)N[C@@H](CCC(=O)O)C(=O)N[C@@H](CC(C)C)C(N)=O)NC(=O)[C@H](CCC(N)=O)NC(=O)[C@H](C)NC(=O)[C@H](C)NC1=O)[C@@H](C)CC` (stereo partly specified) (Ac-IEELI[ξhCys]AAQ[ξhCys]QQRKNEEALREL-NH2; linker 6-10 via mXylylene), the CI is on record as 0.4 in data set [14], 0.9 in data set [18] and 0.6 in [19]. Further, the remaining at 4 h, up to 100 µM in data set [15] was found to be 100%. In addition, the EC50 in [1] was 1010 nM; in [3] it was 86.4 nM; in data set [5], 11 to 27.1 nM; in [6], 15.2 to 15.4 nM; in data set [8], 6900 nM; in data set [9], 22.1 nM. Moreover, the EC50 in data set [20] was 433 nM. The “Ratio EC50” value in data set [16] is recorded as 3.8; in data set [17], 1.6.
